Source: ChEMBL document CHEMBL5346906, “Discovery of novel tranylcypromine-based derivatives as LSD1 inhibitors for gastric cancer treatment” (Eur J Med Chem, 2023)
Active and inactive are the calls of the source. The rule behind the calls is not given here.

Legend:
MGC-803 = test: Antiproliferative activity against human MGC-803 cells incubated for 48 hrs measured by MTT assay; assay type: functional, cell-based; details: MGC-803, 48 h
KYSE-450 = test: Antiproliferative activity against human KYSE-450 cells incubated for 48 hrs measured by MTT assay; assay type: functional, cell-based; details: KYSE-450, 48 h
HCT-116 = test: Antiproliferative activity against human HCT-116 cells incubated for 48 hrs measured by MTT assay; assay type: functional, cell-based; details: HCT-116, 48 h
[1] = biological target: T1, Lysine-specific histone demethylase 1A (Homo sapiens, UniProt O60341); test: Inhibition of recombinant LSD1 (unknown origin) preincubated for 10 mins in presence of H3K4Me2 measured after 30 mins by measuring fluorescence intensity by fluorescence based microplate reader
[2] = biological target: T1, Lysine-specific histone demethylase 1A; test: Inhibition of LSD1 in human MGC-803 cells assessed as increase in methylation of H3K4 at 24 micromol/L; assay type: cell-based; details: dose 24.0 µmol/L
[3] = biological target: T1, Lysine-specific histone demethylase 1A; test: Inhibition of LSD1 in human MGC-803 cells assessed as increase in methylation of H3K9 at 24 micromol/L; assay type: cell-based; details: dose 24.0 µmol/L

## O=C(NC1CC(F)(F)C1)c1cccc(CN[C@@H]2C[C@H]2c2ccc(F)c(F)c2)c1
MGC-803
  IC50: 54.9 µM
KYSE-450
  IC50: 64.5 µM
HCT-116
  IC50: 58.2 µM
[1]
  IC50: 0.115 µM

## COC(=O)c1cccc(NC(=O)c2cccc(CN[C@@H]3C[C@H]3c3ccc(F)c(F)c3)c2)c1
MGC-803
  IC50: 50.1 µM
KYSE-450
  IC50: 67.9 µM
HCT-116
  IC50: 45.7 µM
[1]
  IC50: 0.0321 µM

## CN1CCN(c2ccc(NC(=O)c3cccc(CN[C@@H]4C[C@H]4c4ccc(F)c(F)c4)c3)cc2)CC1
[1]
  IC50: 0.249 µM

## CN1CCN(S(=O)(=O)c2cccc(NC(=O)c3cccc(CN[C@@H]4C[C@H]4c4ccc(F)c(F)c4)c3)c2)CC1
[1]
  IC50: 0.325 µM

## O=C(Nc1cccc(S(=O)(=O)N2CCOCC2)c1)c1cccc(CN[C@@H]2C[C@H]2c2ccc(F)c(F)c2)c1
MGC-803
  IC50: 29.7 µM
KYSE-450
  IC50: 38.7 µM
HCT-116
  IC50: 36.1 µM
[1]
  IC50: 0.0326 µM

## O=C(O)c1cccc(CN[C@@H]2C[C@H]2c2ccc(F)c(F)c2)c1
[1]
  IC50: 0.517 µM

## O=C(c1cccc(CN[C@@H]2C[C@H]2c2ccc(F)c(F)c2)c1)N1CCc2ccccc21
MGC-803
  IC50: 33.7 µM
KYSE-450
  IC50: 51.5 µM
HCT-116
  IC50: 50.1 µM
[1]
  IC50: 0.0261 µM

## NC1CCN(C(=O)c2cccc(CN[C@@H]3C[C@H]3c3ccc(F)c(F)c3)c2)CC1
[1]
  IC50: 0.668 µM

## CCCCNC(=O)c1cccc(CN[C@@H]2C[C@H]2c2ccc(F)c(F)c2)c1
[1]
  IC50: 0.203 µM

## NCC1CCN(C(=O)c2cccc(CN[C@@H]3C[C@H]3c3ccc(F)c(F)c3)c2)CC1
MGC-803
  IC50: > 128 µM
KYSE-450
  IC50: > 128 µM
HCT-116
  IC50: > 128 µM
[1]
  IC50: 0.181 µM

## NC(=O)CNC(=O)c1cccc(CN[C@@H]2C[C@H]2c2ccc(F)c(F)c2)c1
[1]
  IC50: 0.108 µM

## CCN1CCN(c2ccc(NC(=O)c3cccc(CN[C@@H]4C[C@H]4c4ccc(F)c(F)c4)c3)cc2)CC1
MGC-803
  IC50: 28 µM
KYSE-450
  IC50: 24.8 µM
HCT-116
  IC50: 28.1 µM
[1]
  IC50: 0.0428 µM

## O=C(O)c1ccc(CN2CCC(CN[C@@H]3C[C@H]3c3ccccc3)CC2)cc1 [GSK2879552]
MGC-803
  IC50: > 64 µM
KYSE-450
  IC50: > 64 µM
HCT-116
  IC50: > 64 µM

## Cc1ccc(NC(=O)c2cccc(CN[C@@H]3C[C@H]3c3ccc(F)c(F)c3)c2)cc1
[1]
  IC50: 0.0364 µM

## O=C(c1cccc(CN[C@@H]2C[C@H]2c2ccc(F)c(F)c2)c1)N1CCC(O)CC1
[1]
  IC50: 0.141 µM

## O=C(NCC1CCNCC1)c1cccc(CN[C@@H]2C[C@H]2c2ccc(F)c(F)c2)c1
[1]
  IC50: 0.173 µM

## COCCNC(=O)c1cccc(CN[C@@H]2C[C@H]2c2ccc(F)c(F)c2)c1
[1]
  IC50: 0.231 µM

## CN1CCN(C(=O)c2cccc(CN[C@@H]3C[C@H]3c3ccc(F)c(F)c3)c2)CC1
[1]
  IC50: 0.222 µM

## O=C(c1cccc(CN[C@@H]2C[C@H]2c2ccc(F)c(F)c2)c1)N1CC2CCCCC2C1 (stereo not given in full)
MGC-803
  IC50: 51.2 µM
KYSE-450
  IC50: 68.9 µM
HCT-116
  IC50: 55.7 µM
[1]
  IC50: 0.058 µM

## O=C(O)c1cccc(NC(=O)c2cccc(CN[C@@H]3C[C@H]3c3ccc(F)c(F)c3)c2)c1
[1]
  IC50: 0.479 µM

## c1ccc([C@@H]2C[C@H]2NC2CCNCC2)cc1
[2]
  inhibition: Active
MGC-803
  IC50: > 64 µM
KYSE-450
  IC50: > 64 µM
[3]
  inhibition: Active
HCT-116
  IC50: > 64 µM

## NC(=O)C1CCN(C(=O)c2cccc(CN[C@@H]3C[C@H]3c3ccc(F)c(F)c3)c2)CC1
MGC-803
  IC50: > 128 µM
KYSE-450
  IC50: > 128 µM
HCT-116
  IC50: > 128 µM
[1]
  IC50: 0.108 µM

## CN(Cc1ccccc1)C(=O)c1cccc(CN[C@@H]2C[C@H]2c2ccc(F)c(F)c2)c1
[1]
  IC50: 0.0421 µM

## O=C(Nc1ccc(N2CCOCC2)c(F)c1)c1cccc(CN[C@@H]2C[C@H]2c2ccc(F)c(F)c2)c1
[1]
  IC50: 0.249 µM

## O=C(c1cccc(CN[C@@H]2C[C@H]2c2ccc(F)c(F)c2)c1)N1CCN(c2ccccc2)CC1
[1]
  IC50: 0.0563 µM
